The target in assay [1] is T1, purified S1P(983)-C (Cricetulus griseus, UniProt Q9Z2A8, T875N).
T1 construct: Truncated S1P (amino acids 1-983); GGR linker (NotI site); made in house; host or cells: SRD-12B cells (mutant CHO cells lacking S1P) stably transfected with pCMV-S1P(983)-Myc-His (TR-3117, 'S1P(983) cells'); secreted into the medium and purified on Ni-NTA
T1 sequence (Q9Z2A8 187-983 T875N): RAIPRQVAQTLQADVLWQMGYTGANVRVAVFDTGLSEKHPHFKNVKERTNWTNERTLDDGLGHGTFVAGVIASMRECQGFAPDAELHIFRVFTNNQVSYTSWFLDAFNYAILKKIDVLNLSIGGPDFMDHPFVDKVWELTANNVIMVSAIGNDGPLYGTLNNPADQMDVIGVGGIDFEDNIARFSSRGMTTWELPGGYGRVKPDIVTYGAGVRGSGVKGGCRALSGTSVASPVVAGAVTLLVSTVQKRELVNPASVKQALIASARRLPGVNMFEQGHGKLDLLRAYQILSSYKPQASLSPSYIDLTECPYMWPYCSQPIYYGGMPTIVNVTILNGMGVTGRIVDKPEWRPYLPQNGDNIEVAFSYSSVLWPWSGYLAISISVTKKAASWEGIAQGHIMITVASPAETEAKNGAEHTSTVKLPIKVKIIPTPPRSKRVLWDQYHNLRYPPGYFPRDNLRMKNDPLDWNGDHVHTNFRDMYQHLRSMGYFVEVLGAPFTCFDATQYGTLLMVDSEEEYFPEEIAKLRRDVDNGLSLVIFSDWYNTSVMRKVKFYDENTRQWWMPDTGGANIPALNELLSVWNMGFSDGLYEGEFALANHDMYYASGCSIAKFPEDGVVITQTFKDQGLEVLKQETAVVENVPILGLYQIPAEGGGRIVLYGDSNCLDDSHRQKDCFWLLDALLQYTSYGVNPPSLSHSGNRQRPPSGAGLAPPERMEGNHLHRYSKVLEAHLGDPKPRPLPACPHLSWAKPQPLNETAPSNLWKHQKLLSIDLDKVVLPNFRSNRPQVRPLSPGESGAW
The experiment in a line: Fluorogenic peptide assay for S1P activity (cleavage of MCA-conjugated peptides). It is filed as biochemical, hamster. The settings on record: for Relative Activity: 100 μM peptide-MCA, 3 μg S1P(983)-C, 37° C., 5 h, Ac-VFRSLK-MCA set at 1.0; for cleavage of the peptide: result in words. The procedure: Fluorogenic Peptide Assay for S1P Activity
S1P activity was measured fluorometrically with MCA-conjugated peptidyl substrates. Each reaction was carried out in 0.2 ml of assay buffer (25 mM Tris, 25 mM Mes, 25 mM acetic acid, and 1 mM CaCl2 adjusted to pH 8.0 with concentrated NaOH). Reactions contained MCA-peptide (final concentration 100 μM, added in 2 μl DMSO) and […] of purified S1P(983)-C. After incubation for 0.5-5 h at 37° C., each reaction was terminated by addition of 1 ml of ice-cold 5 mM sodium EDTA. The liberated 7-amino-4-methyl-coumarin (AMC) was measured with a Perkin-ElmerLS-30 luminescence spectrometer (360 nm excitation, 460 nm emission). A standard curve of fluorescence intensity was generated with different concentrations of AMC (Promega).
Similar substrates have been used to assay furin, prohormone convertases, and other subtilisin-related enzymes (Nakayama, 1997). […] The sequence of this peptide corresponds to the sequence at Site-B of S1P, which is known to be cleaved by S1P in an autocatalytic reaction. Fluorescence rose linearly with time for 5 h. […] This differs from the observations with furin and the prohormone convertases, whose pH optima are generally in the range of 6-7 (Nakayama, 1997).
The indicated fluorogenic peptide-MCA (100 μM) was incubated with 3 μg of purified S1P(983)-C at 37° C. for 5 h. The S1P activity of Ac-VFRSLK-MCA (SEQ ID NO:13, 930 pmol per min/mg protein) was set at 1.0, and the activity of the other substrates was expressed relative to this value. Each value represents the average of duplicate incubations, which varied from each other by <10%.

For assay [2], the system named is SREBP-2. Kind of assay: Immunoblot of cleavage of HSV-tagged SREBP-2 in transfected SRD-12B cells. It is filed as cell-based, hamster. The settings on record: for cleavage of SREBP-2 by S1P or S1P mutant: SRD-12B cells, HSV-tagged SREBP-2. As for the experimental part: On day 0, SRD-12B cells were set up at a density of 6×10^5 cells/60-mm dish in medium B. On day 1, cells were transfected with 4 μg of the indicated plasmid DNA plus 12 μl of LipofectAMINE™ reagent (Life Technologies) according to the manufacturer's instructions with modifications as follows. LipofectAMINE™/DNA complexes were formed in 1 ml of serum-free medium for 15 min at room temperature, and 0.5 ml were added to 1 ml of serum-free medium per dish. […] After incubation at 37 ° C. for 20 h, the cells received N-acetyl-leucinal-leucinal norleucinal (ALLN) at a final concentration of 25 μg/ml. […] After boiling for 5 min, the proteins were subjected to SDS-PAGE and transferred to Hybond-C Extra nitrocellulose filters (Amersham). The filters were incubated with the antibodies described in the figure legends. […] Gels were calibrated with prestained molecular weight markers (New England Biolabs, Beverly, Mass.). Filters were exposed to X-Omat Blue XB-1 film (Kodak, Rochester, N.Y.) with intensifying screens at room temperature for the indicated time.
Cell membranes and nuclear extracts were subjected to electrophoresis and blotted with an antibody against the HSV epitope-tag.
In a more direct test for S1P catalytic activity, the mutant plasmids were transfected into the SRD-12B cells together with pTK-HSV-BP2. Membranes and nuclear extracts were subjected to SDS-PAGE and blotted with an antibody against the HSV-tagged SREBP-2 (FIG. 9B).
The inventors cotransfected cDNAs encoding wild-type S1P or one of the mutants. Cell membrane pellets and nuclear extracts were subjected to SDS-PAGE. and the NH2 -terminus of SREBP-2 was visualized by immunoblotting with anti-HSV (FIG. 16A).
(In general: Immunoblotting shows a protein as a band on a membrane.)

Peptide text beside a SMILES is read from it. * marks the point of attachment. AMC = Cc1cc(=O)oc2cc(N*)ccc12 Bounds are passed on as bounds.

Consider five molecules from patent US6322962A, “Sterol-regulated Site-1 protease and assays of modulators thereof” (Board of Regents, The University of Texas System, priority 1999, dated 2001).

For the molecule `CC(=O)N[C@@H](CO)C(=O)NCC(=O)N[C@@H](CCCNC(=N)N)C(=O)N[C@@H](CO)C(=O)N[C@H](C(=O)N[C@@H](CC(C)C)C(=O)Nc1ccc2c(C)cc(=O)oc2c1)C(C)C` [Ac-SGRSVL-MCA, Ac-Ser-Gly-Arg-Ser-Val-Leu-MCA] (Ac-SGRSVL-{AMC}), in assay [1], the “Relative Activity” value is recorded as less than 0.1 and the “cleavage of the peptide” value is reported as “did not cleave”. Take `CC(=O)N[C@@H](CCCNC(=N)N)C(=O)N[C@@H](CO)C(=O)N[C@@H](CC(C)C)C(=O)N[C@@H](CCCCN)C(=O)Nc1ccc2c(C)cc(=O)oc2c1` [Ac-RSLK-MCA, Ac-Arg-Ser-Leu-Lys-MCA] (Ac-RSLK-{AMC}): in assay [1], the “Relative Activity” value came to 0.47 and the “cleavage of the peptide” value is given as “cleaves”.

B1: S1P-A: amino acids 23-1052 of SEQ ID NO:1 (protein)
chain: DRLGKKAFEKASCPSCSHLTLKVEFSSTVVEYEYIVAFNGYFTAKARNSFISSALKSSEVDNWRIIPRNNPSSDYPSDFEVIQIKEKQKAGLLTLEDHPNIKRVTPQRKVFRSLKFAESDPIVPCNETRWSQKWQSSRPLRRASLSLGSGFWHATGRHSSRRLLRAIPRQVAQTLQADVLWQMGYTGANVRVAVFDTGLSEKHPHFKNVKERTNWTNERTLDDGLGHGTFVAGVIASMRECQGFAPDAELHIFRVFTNNQVSYTSWFLDAFNYAILKKIDVLNLSIGGPDFMDHPFVDKVWELTANNVIMVSAIGNDGPLYGTLNNPADQMDVIGVGGIDFEDNIARFSSRGMTTWELPGGYGRVKPDIVTYGAGVRGSGVKGGCRALSGTSVASPVVAGAVTLLVSTVQKRELVNPASVKQALIASARRLPGVNMFEQGHGKLDLLRAYQILSSYKPQASLSPSYIDLTECPYMWPYCSQPIYYGGMPTIVNVTILNGMGVTGRIVDKPEWRPYLPQNGDNIEVAFSYSSVLWPWSGYLAISISVTKKAASWEGIAQGHIMITVASPAETEAKNGAEHTSTVKLPIKVKIIPTPPRSKRVLWDQYHNLRYPPGYFPRDNLRMKNDPLDWNGDHVHTNFRDMYQHLRSMGYFVEVLGAPFTCFDATQYGTLLMVDSEEEYFPEEIAKLRRDVDNGLSLVIFSDWYNTSVMRKVKFYDENTRQWWMPDTGGANIPALNELLSVWNMGFSDGLYEGEFALANHDMYYASGCSIAKFPEDGVVITQTFKDQGLEVLKQETAVVENVPILGLYQIPAEGGGRIVLYGDSNCLDDSHRQKDCFWLLDALLQYTSYGVNPPSLSHSGNRQRPPSGAGLAPPERMEGNHLHRYSKVLEAHLGDPKPRPLPACPHLSWAKPQPLNETAPSNLWKHQKLLSIDLDKVVLPNFRSNRPQVRPLSPGESGAWDIPGGIMPGRYNQEVGQTIPVFAFLGAMVALAFFVVQISKAKSRPKRRRPRAKRPQLTQQTHPPRTPSV
On to B1, for which, in assay [2], the “cleavage of SREBP-2 by S1P or S1P mutant” value was “inactive”.

B2: Site-B mutant: S1P with amino acids 134-137 mutated from RSLK to AAAA (protein)
chain: MKLINIWLLLLVVLLCGKKHLGDRLGKKAFEKASCPSCSHLTLKVEFSSTVVEYEYIVAFNGYFTAKARNSFISSALKSSEVDNWRIIPRNNPSSDYPSDFEVIQIKEKQKAGLLTLEDHPNIKRVTPQRKVFAAAAFAESDPIVPCNETRWSQKWQSSRPLRRASLSLGSGFWHATGRHSSRRLLRAIPRQVAQTLQADVLWQMGYTGANVRVAVFDTGLSEKHPHFKNVKERTNWTNERTLDDGLGHGTFVAGVIASMRECQGFAPDAELHIFRVFTNNQVSYTSWFLDAFNYAILKKIDVLNLSIGGPDFMDHPFVDKVWELTANNVIMVSAIGNDGPLYGTLNNPADQMDVIGVGGIDFEDNIARFSSRGMTTWELPGGYGRVKPDIVTYGAGVRGSGVKGGCRALSGTSVASPVVAGAVTLLVSTVQKRELVNPASVKQALIASARRLPGVNMFEQGHGKLDLLRAYQILSSYKPQASLSPSYIDLTECPYMWPYCSQPIYYGGMPTIVNVTILNGMGVTGRIVDKPEWRPYLPQNGDNIEVAFSYSSVLWPWSGYLAISISVTKKAASWEGIAQGHIMITVASPAETEAKNGAEHTSTVKLPIKVKIIPTPPRSKRVLWDQYHNLRYPPGYFPRDNLRMKNDPLDWNGDHVHTNFRDMYQHLRSMGYFVEVLGAPFTCFDATQYGTLLMVDSEEEYFPEEIAKLRRDVDNGLSLVIFSDWYNTSVMRKVKFYDENTRQWWMPDTGGANIPALNELLSVWNMGFSDGLYEGEFALANHDMYYASGCSIAKFPEDGVVITQTFKDQGLEVLKQETAVVENVPILGLYQIPAEGGGRIVLYGDSNCLDDSHRQKDCFWLLDALLQYTSYGVNPPSLSHSGNRQRPPSGAGLAPPERMEGNHLHRYSKVLEAHLGDPKPRPLPACPHLSWAKPQPLNETAPSNLWKHQKLLSIDLDKVVLPNFRSNRPQVRPLSPGESGAWDIPGGIMPGRYNQEVGQTIPVFAFLGAMVALAFFVVQISKAKSRPKRRRPRAKRPQLTQQTHPPRTPSV
For the molecule B2, in assay [2], the “cleavage of SREBP-2 by S1P or S1P mutant” value is “weak activity”. In assay [2] (pTK plasmids, FIG. 16), the “expression level required for SREBP-2 cleavage, compared to wild-type S1P” value is on record as > 10 -fold.

B3: Site B+C mutant: S1P containing both the Site-B and Site-C mutations (protein)
chain: DGGRSEQKLISEEDLNGEQKLISEEDLNGEQKLISEEDLNSSGRLGKKAFEKASCPSCSHLTLKVEFSSTVVEYEYIVAFNGYFTAKARNSFISSALKSSEVDNWRIIPRNNPSSDYPSDFEVIQIKEKQKAGLLTLEDHPNIKRVTPQRKVFAAAAFAESDPIVPCNETRWSQKWQSSRPLVAASLSLGSGFWHATGRHSSAAAAAAIPRQVAQTLQADVLWQMGYTGANVRVAVFDTGLSEKHPHFKNVKERTNWTNERTLDDGLGHGTFVAGVIASMRECQGFAPDAELHIFRVFTNNQVSYTSWFLDAFNYAILKKIDVLNLSIGGPDFMDHPFVDKVWELTANNVIMVSAIGNDGPLYGTLNNPADQMDVIGVGGIDFEDNIARFSSRGMTTWELPGGYGRVKPDIVTYGAGVRGSGVKGGCRALSGTSVASPVVAGAVTLLVSTVQKRELVNPASVKQALIASARRLPGVNMFEQGHGKLDLLRAYQILSSYKPQASLSPSYIDLTECPYMWPYCSQPIYYGGMPTIVNVTILNGMGVTGRIVDKPEWRPYLPQNGDNIEVAFSYSSVLWPWSGYLAISISVTKKAASWEGIAQGHIMITVASPAETEAKNGAEHTSTVKLPIKVKIIPTPPRSKRVLWDQYHNLRYPPGYFPRDNLRMKNDPLDWNGDHVHTNFRDMYQHLRSMGYFVEVLGAPFTCFDATQYGTLLMVDSEEEYFPEEIAKLRRDVDNGLSLVIFSDWYNTSVMRKVKFYDENTRQWWMPDTGGANIPALNELLSVWNMGFSDGLYEGEFALANHDMYYASGCSIAKFPEDGVVITQTFKDQGLEVLKQETAVVENVPILGLYQIPAEGGGRIVLYGDSNCLDDSHRQKDCFWLLDALLQYTSYGVNPPSLSHSGNRQRPPSGAGLAPPERMEGNHLHRYSKVLEAHLGDPKPRPLPACPHLSWAKPQPLNETAPSNLWKHQKLLSIDLDKVVLPNFRSNRPQVRPLSPGESGAWDIPGGIMPGRYNQEVGQTIPVFAFLGAMVALAFFVVQISKAKSRPKRRRPRAKRPQLTQQTHPPRTPSV
Regarding B3, the “cleavage of SREBP-2 by S1P or S1P mutant” value in assay [2] is on record as “no detectable cleaved nuclear form”.
